From patent publication US20090191193A1, “Aryl Vinyl Sulfides, Sulfones, Sulfoxides and Sulfonamides, Derivatives Thereof and Therapeutic Uses Thereof” (TEMPLE UNIVERSITY-OF THE COMMONWEALTH SYSTEM OF HIGHER …, priority 2006, published 2009)

Legend:
DU145 (prostate cancer) = experiment: Effect on tumor cell lines, viable cell count by trypan blue exclusion (Latham et al.): DU145; type: cell-based; conditions: DU145 prostate cancer cells, viable cell count 96 hours after treatment
Method: (§1) The effect of the compounds of the invention on tumor cells was determined by the assay described by Latham et al., Oncogene 12:827-837 (1996). Tumor cells DU145 (prostate cancer), K562 (chronic myelogenous leukaemia), BT20 (breast carcinoma), H157 (non small cell lung carcinoma), or DLD1 (colon carcinoma) were plated in 6-well dishes at a cell density of 1.0×10^5 cells per 35-mm^2 well. […] The total number of viable cells was determined 96 hours later by trypsinizing the wells and counting the number of viable cells, as determined by trypan blue exclusion, using a hemacytometer. Normal HFL cells were treated with the same compounds under the same conditions of concentration and time.

[1] = system: K562 (chronic myelogenous leukaemia); experiment: Effect on tumor cell lines, viable cell count by trypan blue exclusion (Latham et al.): K562; type: cell-based; conditions: K562 chronic myelogenous leukaemia cells, viable cell count 96 hours after treatment
Method: as §1

melting point [°C]	IC50 (DU145 (prostate cancer); Homo sapiens, DU-145, 96 h) [µM]	SMILES	also measured
178 to 180	25	COc1ccc(CS(=O)(=O)/C(C#N)=C/c2c(OC)cc(OC)cc2OC)cc1 [Example 1]	–
138 to 140	100	COc1ccc(CS(=O)(=O)/C(C#N)=C/c2ccc(F)cc2F)cc1 [Example 2]	–
–	50	COc1ccc(CS(=O)(=O)/C(C#N)=C/c2ccc(F)c([N+](=O)[O-])c2)cc1 [Example 3]	–
146 to 148	–	N#C/C(=C\c1ccc(F)cc1F)S(=O)(=O)Cc1ccc(Br)cc1 [Example 4]	–
146 to 148	–	COc1ccc(CS(=O)(=O)/C(C#N)=C/c2ccc(F)c(N)c2)cc1 [Example 6]	–
108 to 110	75	COc1ccc(CS(=O)(=O)/C(C#N)=C/c2c(OC)cccc2OC)cc1 [Example 8]	–
142 to 144	–	COc1ccc(CS(=O)(=O)/C(C#N)=C/c2ccsc2)cc1 [Example 13]	–
138 to 140	25	COc1ccc(CS(=O)(=O)/C(C#N)=C/c2ccc(F)cc2Cl)cc1 [Example 15]	–
196 to 198	–	COc1ccc(CS(=O)(=O)/C(C#N)=C/c2ccc(O)c(O)c2)cc1OC [Example 28]	–
174 to 176	100	COc1ccc(CS(=O)(=O)/C(C#N)=C/c2ccc3oc(=O)[nH]c3c2)cc1OC [Example 30]	–
138 to 142	–	N#C/C(=C\c1ccc([N+](=O)[O-])cc1)S(=O)(=O)Cc1ccc(Br)cc1 [Example 31]	–
156 to 158	2.5	N#C/C(=C\c1c(F)c(F)c(F)c(F)c1F)S(=O)(=O)Cc1ccc(F)cc1 [Example 33]	–
–	50 to 100	CCOC(=O)c1c(C)[nH]c(/C=C(\C#N)S(=O)(=O)Cc2ccc(F)cc2)c1C [Example 37, (E)-2-[(4-fluorophenyl)methanesulfonyl]-3-(4-ethoxycarbonyl-3,5-dimethylpyrrol-2-yl)acrylonitrile]	IC50 ([1]; Homo sapiens, K562, 96 h): 50 to 100 µM
193 to 196	–	Cc1ccc(/C=C(\C(N)=O)S(=O)(=O)Cc2ccc(Cl)cc2Cl)cc1C [Example 151]	–
195 to 196	–	NC(=O)/C(=C\c1ccc(Br)cc1)S(=O)(=O)Cc1ccc(Cl)cc1Cl [Example 153]	–
188 to 193	–	NC(=O)/C(=C\c1cccc(Cl)c1Cl)S(=O)(=O)Cc1ccc(F)cc1 [Example 155]	–
79 to 82	–	Cc1ccc(C)c(/C=C(\C(N)=O)S(=O)(=O)Cc2ccc(Cl)cc2)c1 [Example 157]	–
199 to 200	–	NC(=O)/C(=C\c1ccc(Br)cc1)S(=O)(=O)Cc1ccc(F)cc1 [Example 161]	–
168 to 170	–	NC(=O)/C(=C\c1cc(F)c(F)cc1F)S(=O)(=O)Cc1ccc(F)cc1 [Example 162]	–
172 to 176	–	Cc1cc(C)cc(/C=C(\C(N)=O)S(=O)(=O)Cc2ccc(Cl)cc2)c1 [Example 163]	–
197 to 202	–	CCOc1ccc(/C=C(\C(N)=O)S(=O)(=O)Cc2ccc(F)cc2)cc1OC [Example 164, (E)-2-[(4-fluorophenyl)methanesulfonyl]-3-(4-ethoxy-3-methoxyphenyl)acrylamide]	–
245 to 247	–	CCOc1ccc(/C=C(\C(N)=O)S(=O)(=O)Cc2ccc(Cl)cc2Cl)cc1OC [Example 168, (E)-2-[(2,4-dichlorophenyl)methanesulfonyl]-3-(4-ethoxy-3-methoxyphenyl)acrylamide]	–
164 to 167	–	COc1cc(OC)c(/C=C(\C(N)=O)S(=O)(=O)c2ccccc2)c(OC)c1 [Example 178]	–
172 to 175	–	COc1ccc(S(=O)(=O)/C(=C/c2c(OC)cc(OC)cc2OC)C(N)=O)cc1 [Example 182]	–
184 to 186	25	COc1cc(OC)c(/C=C(\[N+](=O)[O-])S(=O)(=O)c2ccc(Br)cc2)c(OC)c1 [Example 186]	–
176 to 180	–	COc1cc(OC)c(/C=C(\[N+](=O)[O-])S(=O)(=O)c2ccccc2)c(OC)c1 [Example 187]	–
154 to 156	–	COc1ccc(NS(=O)(=O)/C(C#N)=C/c2c(OC)cccc2OC)cc1 [Example 193]	–
152 to 154	> 100	COc1ccc(NS(=O)(=O)/C(C#N)=C/c2ccc(C)c(C)c2)cc1 [Example 203]	–

More lines, now with the values behind:

SMILES	melting point [°C]	IC50 (DU145 (prostate cancer); Homo sapiens, DU-145, 96 h) [µM]	also measured
COc1ccc(CS(=O)(=O)/C(C#N)=C/c2ccc(N)cc2)cc1 [Example 5]	140 to 142	75	–
COc1ccc(CS(=O)(=O)/C(C#N)=C/c2ccc(F)cc2)cc1 [Example 7]	171 to 173	100	–
COc1ccc(CS(=O)(=O)/C(C#N)=C/c2ccccc2OC)cc1 [Example 9]	143 to 145	–	–
COc1ccc(CS(=O)(=O)/C(C#N)=C/c2ccc([N+](=O)[O-])cc2)cc1 [Example 10]	174 to 176	–	–
COc1ccc(CS(=O)(=O)/C(C#N)=C/c2ccoc2)cc1 [Example 12]	150 to 153	–	–
N#C/C(=C\c1ccccc1OC(F)F)S(=O)(=O)Cc1ccc(Br)cc1 [Example 14]	204 to 206	–	–
COc1ccc(CS(=O)(=O)/C(C#N)=C/c2ccc(C#N)cc2F)cc1 [Example 17]	112 to 114	–	–
COc1ccc(CS(=O)(=O)/C(C#N)=C/c2ccc3oc(=O)[nH]c3c2)cc1 [Example 22]	210 to 212	10	–
COc1ccc(CS(=O)(=O)/C(C#N)=C/c2ccc3[nH]c(=O)oc3c2)cc1 [Example 23, (E)-2-[(4-methoxyphenyl)methanesulfonyl]-3-(2-benzoxazolon-6-yl)acrylonitrile]	208 to 210	50	–
N#C/C(=C\c1ccc(O)c(O)c1)S(=O)(=O)Cc1ccc(Cl)cc1 [Example 24]	178 to 180	10	–
COc1ccc(CS(=O)(=O)/C(C#N)=C/c2ccc(O)c(O)c2)cc1 [Example 25]	144 to 146	10	–
COc1ccc(CS(=O)(=O)/C(C#N)=C/c2ccc(OC)c(OC)c2)cc1 [Example 26]	156 to 158	–	–
COc1ccc(CS(=O)(=O)/C(C#N)=C/c2ccc3c(c2)OCO3)cc1 [Example 27, (E)-2-[(4-methoxyphenyl)methanesulfonyl]-3-(1,3-benzodioxole-5-yl)acrylonitrile]	186 to 188	100	–
COc1ccc(CS(=O)(=O)/C(C#N)=C/c2ccc3[nH]c(=O)oc3c2)cc1OC [Example 29]	–	100	–
COc1ccc(CS(=O)(=O)/C(C#N)=C/c2c(F)c(F)c(F)c(F)c2F)cc1OC [Example 32]	–	10	–
COc1cc(OC)c(/C=C(\C#N)S(=O)(=O)Cc2ccc(OC)c([N+](=O)[O-])c2)c(OC)c1 [Example 34]	184 to 186	–	–

SMILES	melting point [°C]	IC50 (DU145 (prostate cancer); Homo sapiens, DU-145, 96 h) [µM]	also measured
CSc1ccc(/C=C(\C#N)S(=O)(=O)Cc2ccc(Cl)cc2)cc1 [Example 43]	–	–	IC50 [1]: 50 to 100 µM; IC50 (DU145 (prostate cancer)): > 100 µM
COc1cc(OC)c(/C=C(\C(N)=O)S(=O)(=O)Cc2ccc(Cl)cc2Cl)c(OC)c1 [Example 152]	201 to 204	–	–
COc1ccc(/C=C(\C(N)=O)S(=O)(=O)Cc2ccc(Cl)cc2Cl)cc1O [Example 154, (E)-2-[(2,4-dichlorophenyl)methanesulfonyl]-3-(3-hydroxy-4-methoxyphenyl)acrylamide]	185 to 189	–	–
NC(=O)/C(=C\c1ccc(Cl)cc1Cl)S(=O)(=O)Cc1ccccc1Cl [Example 156]	158 to 164	–	–
CCOc1ccc(/C=C(\C(N)=O)S(=O)(=O)Cc2ccc(Cl)cc2)cc1OC [Example 158, (E)-2-[(4-chlorophenyl)methanesulfonyl]-3-(4-ethoxy-3-methoxyphenyl)acrylamide]	195 to 197	–	–
CCOc1ccc(/C=C(\C(N)=O)S(=O)(=O)Cc2ccc([N+](=O)[O-])cc2)cc1OC [Example 159, (E)-2-[(4-nitrophenyl)methanesulfonyl]-3-(4-ethoxy-3-methoxyphenyl)acrylamide]	235 to 240	–	–
Cc1ccc(C)c(/C=C(\C(N)=O)S(=O)(=O)Cc2ccc(F)cc2)c1 [Example 160]	172 to 176	–	–
NC(=O)/C(=C\c1ccc(Cl)cc1Cl)S(=O)(=O)Cc1ccc(Cl)cc1 [Example 165]	206 to 210	–	–
NC(=O)/C(=C\c1ccc(F)cc1Cl)S(=O)(=O)Cc1ccc(Cl)cc1 [Example 166]	194 to 199	–	–
CC(=O)c1ccc(/C=C(\C(N)=O)S(=O)(=O)Cc2ccc(Cl)cc2Cl)cc1 [Example 167]	207 to 210	–	–
NC(=O)/C(=C\c1cccc(Cl)c1Cl)S(=O)(=O)Cc1ccc([N+](=O)[O-])cc1 [Example 169]	200 to 202	–	–
COc1ccc(CS(=O)(=O)/C(=C/c2c(OC)cc(OC)cc2OC)C(N)=O)cc1 [Example 171]	168 to 171	–	–
COc1ccc(S(=O)(=O)/C(=C/c2ccc(F)cc2)C(N)=O)cc1 [Example 181]	154 to 156	–	–
COc1cc(OC)c(/C=C(\[N+](=O)[O-])S(=O)(=O)c2ccc(C)cc2)c(OC)c1 [Example 185]	192 to 194	50	–
COc1ccc(NS(=O)(=O)/C(C#N)=C/c2cc(OC)cc(OC)c2)cc1 [Example 201]	167 to 168	> 100	–
COc1ccc(NS(=O)(=O)/C(C#N)=C/c2cc(Cl)cc(Cl)c2Cl)cc1 [Example 294]	180 to 181	–	IC50 ([1]; Homo sapiens, K562, 96 h): < 1 µM
